Series [1] deals with LN229 cells. The series is described as follows: orthotopic LN229 glioblastoma model, RG5579 alone or with TMZ, survival. The conditions noted are these: intratumoral 40 ug RG5579 Day 21, TMZ daily Days 35-41, nude mice. Format: in vivo. The method, then:
RG5579 was tested in an orthotopic model of GBM established with LN229 cells.
Human gliomablastoma-derived LN229 cells growing in culture were trypsinized, counted, and resuspended PBS. The cells express a fluorescent marker that enables monitoring of tumor growth and size during treatment. Approximately 5×10^5 cells, in a volume of 5 ul, were injected into the brain of nude mice on Day 0. Mice were randomized into the following treatment groups, with 8 mice per group: (1) PBS; (2) RG5579; (3) PBS+TMZ; and (4) RG5579+TMZ. On Day 21, mice were given an intratumoral injection of either PBS or 40 ug of RG5579. On Days 35-41, TMZ was administered daily. Survival was monitored, and overall median survival was determined.

Series [2] deals with LN229 cells. As to the kind of experiment: orthotopic LN229 glioblastoma model, RG5461 and RG5658 alone or with TMZ, survival. Format: in vivo. The conditions noted are these: single intratumoral dose Day 21 (20 ug RG5658, 50 ug RG5461), TMZ daily Days 35-41, nude mice. The method, then: RG5658 and RG5461 were tested in an orthotopic model of GBM established with LN229 cells. Treatments comprised anti-miR-10b compound alone or in combination with TMZ.
Further testing was performed to evaluate the effects of RG5658 and RG5461 treatment in combination with TMZ. Human gliomablastoma-derived LN229 cells growing in culture were trypsinzed, counted, and resuspended PBS. The cells express a fluorescent marker that enables monitoring of tumor growth and size during treatment. Approximately 5×10^5 cells, in a volume of 5 ul, were injected into the brain of nude mice on Day 0. Mice were randomized into the following treatment groups, with 8 mice per group: (1) PBS; (2) RG5461; (3) RG5658; (4) RG5461+TMZ; (5) RG5658+TMZ; and (6) PBS+TMZ. On Day 21, a single dose of anti-miR-10b compound was administered intratumorally at a dose of 20 ug for RG5658 or 50 ug for RG5461. TMZ was administered daily on each of Days 35-41. Survival was monitored, and overall median survival was determined.

Series [3] concerns LN229 cells. The series is described as follows: LN229 Orthotopic Model, summary of in vivo studies (Table 7). Set-up: species or system nude mice. The following applies: for survival benefit: Intratumoral anti-miR-10b alone, cell reads 'No survival benefit' over three lines. On the procedure:
(§1) Human gliomablastoma-derived cells growing in culture are trypsinzed, counted, and resuspended PBS. The cells express a fluorescent marker and luciferase insertion that enables monitoring of tumor growth and size via an in vivo imaging system. Approximately 5×10^5 cells, in a volume of 5 ul, are injected into the brain of nude mice. Following intracranial tumor implantation, tumor burden is measured using the IVIS Spectrum In Vivo Imaging System (PerkinElmer), and mice are randomized into treatment groups. Intratumoral (e.g., 0.1-500 ug/tumor), subcutaneous (e.g., 100 mg/kg) or intravenous (e.g., 80 mg/kg) dosing of anti-miR-10b compound begins post-implantation. Tumor burden is measured weekly using the imaging system. Final tumor size and weight are measured at the end of the study.
Three candidate therapeutic agents, RG5579, RG5461, and RG5658 were tested in the subcutaneous and orthotopic glioma models. […] The studies were designed to evaluate subcutaneous administration vs. intratumoral administration in subcutaneous in orthotopic models; efficacy of the anti-miR-10b compound alone and in combination with TMZ; and efficacy of a single injection of anti-miR-10b compound vs multiple injections. The research tool compound RG384124 was also tested.
The results of the in vivo studies are summarized in Table 7 and illustrate the substantial improvement of overall survival following treatment with both anti-miR-10b compound and TMZ. RG5461 and RG5658 improved overall median survival in combination with TMZ treatment.

Series [4] concerns LN229 cells. As to the kind of experiment: cell viability assay (CellTiter-Glo), LN229 cells. Format: cell-based, human. The following applies: RNAiMAX transfection, 72 hours. The method, then: (§2) For the cell viability assay, approximately 8,000 cells were plated into each well of a 96-well plate. The following day, cells were transfected with anti-miR-10b compound at doses of 2, 4, 8, 16, 31, 63, 125, 250, and 500 nM, using RNAiMAX™ as the transfection reagent. After 72 hours, cell viability was determined using the CellTiter-Glo® Luminescent Cell Viability Assay. An IC50 was calculated for each compound. The assay was performed using both LN229, U87, MCF7, and HCN2 cells.

The next series concerns MCF7 cells. As to the kind of experiment: cell viability assay (CellTiter-Glo), MCF7 cells. Format: cell-based. The following applies: RNAiMAX transfection, 72 hours. On the procedure: as §2
In series [5] the test system is miR-10b. The series is described as follows: luciferase reporter assay for miR-10b in stable Hela cell line. Format: cell-based. The conditions noted are these: Hela reporter cells transfected with miR-10b; for Luciferase (avg fold change) 1 nM: 1 nM anti-miR-10b compound; for Luciferase (avg fold change) 10 nM: 10 nM anti-miR-10b compound; for Luciferase (avg fold change) 100 nM: 100 nM anti-miR-10b compound. The method, then: In vitro potency was evaluated using a luciferase reporter assay. A luciferase reporter plasmid for miR-10b was designed, with a fully complementary miR-10b binding site in the 3′-UTR of the luciferase gene. A stable Hela cell line expressing this luciferase construct was generated. Cells were transfected to introduce miR-10b, which represses the expression of luciferase from the reporter construct. […] Cells were treated with anti-miR-10b compound at concentrations of 1 nM, 10 nM, and 100 nM. […] As shorter compounds, such as 9-mers, are typically not maximally active in the same assay conditions used for longer compounds, shorter compounds were selected based on maximum inhibition relative to appropriate control compounds. In this way, compounds that are diverse in both length and chemical composition were included in further testing.

Another series has as its system U87 cells. The series is described as follows: cell viability assay (CellTiter-Glo), U87 cells. Format: cell-based. The conditions noted are these: RNAiMAX transfection, 72 hours. On the procedure:
as §2

A further series has as its system HCN2 cells. The series is described as follows: cell viability assay (CellTiter-Glo), HCN2 cells. Format: cell-based. The conditions noted are these: RNAiMAX transfection, 72 hours. The method, then: as §2
The subject of series [6] is Human gliomablastoma-derived cells. The series is described as follows: initial testing in subcutaneous and orthotopic glioma models, single intratumoral dose. The conditions noted are these: single dose administered intratumorally. Format: in vivo, nude mice. On the procedure:
Human gliomablastoma-derived cells growing in culture are trypsinzed, counted, and resuspended in a 1:1 mixture of media:growth factor reduced Matrigel. Approximately 10^6 cells, in a volume of 100 ul, are injected subcutaneously into the flank of nude mice. Ten days following subcutaneous tumor implantation, tumor size is measured using calipers, and mice are randomized into treatment groups. Intratumoral (e.g., 5 ug/30 mm^3 tumor), subcutaneous (e.g., 100 mg/kg) or intravenous (e.g., 80 mg/kg) dosing of anti-miR-10b compound begins post-implantation. Tumor size is measured three to five days per week. Final tumor size and weight are measured at the end of the study.
as §1, with “Intratumoral (e.g., 0.1-500 ug/tumor), subcutaneous (e.g., 100 mg/kg) or intravenous (e.g., 80 mg/kg) dosing of anti-miR-10b compound begins post-implantation.” left out

Series [7] concerns miR-10b. As to the kind of experiment: PD signature (mRNA of direct miR-10b target genes) in LN229 cells. Format: cell-based, human. The method, then:
To evaluate the on-target pharmacodynamic effects of treatment with anti-miR-10b, 18 genes that are direct targets of miR-10b were identified by next generation sequencing, and the expression of each of these genes following anti-miR-10b treatment was measured. The 18 genes were: ATXN2, ATXN7, BCL6, BDNF, CRLF3, DAZAP1, DVL3, FXR2, GATAD2A, GCLM, GTF2H1, INO80D, MIEF1, NCOA6, NFE2L1, PDE4A, SMAD2, and TET2.
LN229 cells were treated with a concentration of RG5579 ranging from 2 to 500 nM. After 24 hours, RNA was isolated and the mRNA levels of the 18 genes targeted were measured and averaged to provide a pharmacodynamic signature score (PD Signature Score), represented as Log 2 fold-change (Log 2FC) relative to mock-transfection.
Similar studies were conducted with RG5461 and RG5658, using a PD signature of 10 genes (non-overlapping with the 18-gene PD signature above).

In the oligonucleotide strings, read from the 5' end, every base follows the letter of its sugar. An asterisk marks phosphorothioate; unmarked linkages are phosphodiester. Other units and linkages are bracketed, terminal groups are in braces. A string of capitals states the bases alone. e = 2'-O-(2-methoxyethyl) (MOE); [5mC] = 5-methylcytosine

With `Cn1nnc2c(C(N)=O)ncn2c1=O` [TMZ, temozolomide], in the series on LN229 cells [1], the “Median Overall Survival % increase (relative to PBS)” value is recorded as 27% and the “Median Overall Survival Days” value is 61.5 days. In the series on LN229 cells [2], the “% increase (relative to PBS) of median survival” value is on record as 22% and the “Median Survival” value amounted to 67.5 days.

For “5′-CACAAATTCGGTTCTACAGGGTA-3′ (antisense e[5mC]*eA*e[5mC]*eA*eA*eA*eT*eT*e[5mC]*eG*eG*eT*eT*e[5mC]*eT*eA*e[5mC]*eA*eG*eG*eG*eT*eA) [RG384124, research tool compound; each nucleoside 2′-O-methoxyethyl, each C 5-methylcytosine, each linkage phosphorothioate]”, the survival benefit entry with LN229 cells [3] is “No”. For the same compound, the half-inhibitory concentration (IC50) turned out to be 0.043 µM in the series on LN229 cells [4], 0.0805 µM in the series with MCF7 cells, 0.0313 µM in the series on U87 cells and 0.0444 µM in the series with HCN2 cells. The “Luciferase (avg fold change) 1 nM” value in the series with miR-10b [5] was 2.8 fold change. The “Luciferase (avg fold change) 10 nM” value in the series on miR-10b [5] stood at 29.5 fold change. In addition, the “Luciferase (avg fold change) 100 nM” value in the series with miR-10b [5] came out at 55.6 fold change.

With “UKAKCMAFGFGFGMUKAK (CAAATUCGGTTCTACAGGGTA; LNA/2'-F/2'-OMe modifications, chemistry not fully specified) [RG5658, anti-miR-10b modified oligonucleotide, 9 linked nucleosides]”, the median survival increase in the series with LN229 cells [3] (Intratumoral anti-miR-10b + TMZ) worked out at 71%. The survival benefit result with LN229 cells [3] is on record as “No”. For the same compound, the “Median Survival” value in the series with LN229 cells [2] worked out at 56 days. In series [6], the overall survival result was “did not significantly improve overall survival” and the tumor growth result is given as “consistently delayed tumor growth”. The compound also returned an IC50 with LN229 cells [4] of 0.0901 µM. The compound also came in with an IC50 with MCF7 cells of 0.929 µM. In addition, the “10-gene PD signature” value with miR-10b [7] is “dose-dependent de-repression of a 10-gene PD signature”. In the series on miR-10b [5], the “Luciferase (avg fold change) 1 nM” value came out at 1.8 fold change, the “Luciferase (avg fold change) 10 nM” value is 3.7 fold change and the “Luciferase (avg fold change) 100 nM” value worked out at 4.7 fold change. This compound also yielded an IC50 with U87 cells of 0.0456 µM.
